ChEMBL document CHEMBL5308541, “MAIP: An Open-Source Tool to Enrich High-Throughput Screening Output and Identify Novel, Druglike Molecules with Antimalarial Activity” (ACS Med Chem Lett, 2023)

Columns and labels:
Plasmodium falciparum [1] = assay: Hit confirmation in dose-response curve in NF54 nanoGlo assay, at 72h; assay type: functional, organism-based, Erythrocyte; parameters: timepoint 72 hour; settings: Plasmodium falciparum, NF54, Erythrocyte, 72 h
Plasmodium falciparum [2] = assay: Hit confirmation in dose-response curve in NF54 pLDH assay, at 72h; assay type: functional, organism-based, Erythrocyte; parameters: timepoint 72 hour; settings: Plasmodium falciparum, NF54, Erythrocyte, 72 h
Plasmodium falciparum [3] = assay: Hit confirmation in dose-response curve in Dd2 pLDH assay, at 72h; assay type: functional, organism-based, Erythrocyte; parameters: timepoint 72 hour; settings: Plasmodium falciparum, Dd2, Erythrocyte, 72 h
Plasmodium falciparum [4] = assay: Hit confirmation in dose-response curve in NF54 nanoGlo assay, at 12h; assay type: functional, organism-based, Erythrocyte; parameters: timepoint 12 hour; settings: Plasmodium falciparum, NF54, Erythrocyte, 12 h
[5] = Hit confirmation in dose-response curve in HepG2 cytotoxicity assay, at 72h; assay type: toxicity, cell-based, Homo sapiens; parameters: timepoint 72 hour; settings: human, HepG2 cells

Compound	IC50 (Plasmodium falciparum [1]) [µM]	IC50 (Plasmodium falciparum [2]) [µM]	IC50 (Plasmodium falciparum [3]) [µM]	IC50 (Plasmodium falciparum [4]) [µM]	IC50 at 72 h [5] [µM]
N#Cc1ccc(N2C[C@H](COCC3CC3)C3(CCN(Cc4cccc(O)c4)CC3)C2)cc1C(F)(F)F	1.78	2.69	2.69	4.68	> 10
Cc1ccc2[nH]cc(-c3cc(N4CCOCC4)nc(N)n3)c2c1	5.62	7.59	7.08	9.77	> 10
CN1CCC(N2CCC(NC(=O)c3ccc(S(=O)(=O)N(C)C4CCCCC4)cc3)CC2)CC1	4.27	5.89	3.89	9.33	> 10
CCN1CCC(N2CCC(C(=O)NCCc3ccc(OC(F)(F)F)cc3)CC2)CC1	3.31	3.8	3.31	6.76	> 10
CCOc1ccc2nc(CN(CC)CC3CCN(C4CCN(C)CC4)CC3)ccc2c1	1.95	2.45	2	3.55	> 10
Cc1nc2ccc(CNC3CCN(c4ccc(F)c(F)c4)CC3)cc2[nH]1	4.57	3.72	3.55	> 10	> 10
Cn1nnc(C(=O)N2CCCCC23CCCCCC3)n1	2.24	5.5	2.29	> 10	> 10
Cc1cc(N2CCC(NCCCN3CCCc4ccccc43)CC2)nc(N)n1	3.09	3.63	3.72	> 10	> 10
CNc1nc(N[C@H]2CCCN(Cc3ccc(Cl)cc3)C2)nc2c1CCC2	2.45	2.63	2.29	> 10	> 10
Fc1ccc(N2CC[C@H](CN3CCC(c4c[nH]c5ccccc45)(c4c[nH]c5ccccc45)CC3)C2)cc1	1.91	6.61	4.27	2.51	> 10
CCN(Cc1cnn(-c2cccc(Cl)c2)c1)CC1CCN(C2CCN(C)CC2)CC1	1.55	1.35	1.23	2.69	> 10
Cc1nc(-c2ccccn2)nc(NC2CCN(CC(F)F)CC2)c1C	2.51	9.12	6.46	> 10	> 10
CC(CNc1nc(NCC(C)N2CCOCC2)c2cc(Cl)ccc2n1)N1CCOCC1 (stereo not given)	1.74	1.91	1.58	> 10	> 10
CN1CCN(c2ccc(C(F)(F)F)cc2NCc2cnc[nH]2)CC1	4.07	4.68	4.27	6.61	> 10
Cc1ccc2[nH]c(CNC[C@@H](CO)C3CCC3)cc2c1C	2.45	4.57	3.63	4.47	> 10
COCCCN1CCC(Nc2ncnc3cc(C)c(C)cc23)CC1	1.17	1.7	1.17	2.04	> 10
Cc1cnccc1NCCNCc1cccc(OCCCCN2CCOCC2)c1	1.45	1.38	1.2	2.75	> 10

Compound	IC50 (Plasmodium falciparum [1]) [µM]	IC50 (Plasmodium falciparum [2]) [µM]	IC50 (Plasmodium falciparum [3]) [µM]	IC50 (Plasmodium falciparum [4]) [µM]	IC50 at 72 h [5] [µM]
OC1(c2ccc(Cl)cc2)CCN(C[C@@H]2CCCN3CCCC[C@H]23)CC1	3.98	4.07	3.72	7.41	> 10
CCc1cc(Nc2ccc(N3CCOCC3)nc2)nc(-c2ccncc2)n1	3.72	4.47	6.31	> 10	> 10
Cc1cnccc1NCCNCc1cnc(N2CCCCC2)nc1	2.51	3.39	2.14	> 10	> 10
CN(C)C1(CNc2nc(C(F)(F)F)nc3cc4c(cc23)OCO4)CCCCCC1	2.95	1.26	3.47	> 10	> 10
COCCN1CC[C@H](CNC2CCN(c3ncc4ccc(F)cc4n3)CC2)C1	3.09	4.57	4.07	5.62	> 10
CCCN1CCC(Nc2cc(C)nc3ccccc23)CC1	2.19	2.29	1.78	5.37	> 10
Cn1cncc1[C@@H]1CNC[C@H]1CNC(=O)c1ccccc1NC1CCCCC1	3.89	6.76	4.17	8.13	> 10
O[C@@H](CNCc1ccc2c(c1)CCO2)c1ccc(F)c(F)c1	2.29	8.32	3.72	5.62	> 10
Brc1cccc(NCCNC2CCN(Cc3cccnc3)CC2)c1	3.8	3.8	3.72	8.51	> 10
CCc1ccc2ncnc(NCCCN3CCN(CCO)CC3)c2c1	5.62	6.31	5.75	9.77	> 10
CN(C)CCN1CCC(NC2CCC(O)(c3cccc(Cl)c3)CC2)CC1 (stereo not given)	5.01	4.47	3.72	> 10	> 10
Cc1cc(NCCCN2CCC[C@H](O)C2)c2cc(F)ccc2n1	3.39	3.89	2.69	7.24	> 10
COc1cc2nc(NCC3(N4CCN(C)CC4)CCCC3)cc(C)c2cc1OC	2.14	3.47	2.24	8.51	> 10
CCCC(=O)NC1COCC1Cc1ccncc1 (stereo not given)	6.31	> 10	> 10	8.91	> 10
Cc1ocnc1CNC[C@H](O)c1ccc(Cl)c(Cl)c1	2.14	4.27	3.02	3.31	> 10
c1ccc(CN2CCC(CCNC[C@@H]3CCCN4CCCC[C@H]34)CC2)cc1	2.34	2.57	1.78	7.24	> 10

Now from value to compound, other results behind:

IC50 (Plasmodium falciparum [1]) [µM]	IC50 (Plasmodium falciparum [2]) [µM]	IC50 (Plasmodium falciparum [3]) [µM]	IC50 (Plasmodium falciparum [4]) [µM]	Compound	IC50 at 72 h [5] [µM]
4.07	6.17	5.62	6.92	CN1CCN(CCOc2ccccc2CN(C)Cc2cc3cc(F)ccc3[nH]2)CC1	10.2
2.51	2.95	2.82	5.37	CN1CCC(N(Cc2ccccc2)C(=O)c2cc3cnccc3[nH]2)CC1	> 10
4.07	8.71	8.71	4.9	COc1ccc(-c2cc(-c3ccccc3O)n([C@@H]3C(=O)Nc4ccc(Br)cc43)n2)cc1	> 10
0.324	0.38	0.302	> 10	Cc1cc(O)c(Cl)cc1-c1ccc2nccc(N)c2c1	> 10
6.31	14.5	> 10	> 10	O=C1CN(C(=O)c2ccnc3ccccc23)CCN1Cc1ccccc1F	> 10
2.19	2.69	3.02	6.76	COc1ccc2c(C)cc(NCCCN3CCC[C@H](C(N)=O)C3)nc2c1	> 10
0.977	1.7	1.23	1.62	CN1CCC(N(C)C[C@H](Nc2ncnc3ccccc23)c2ccccc2)CC1	> 10
3.63	9.33	7.94	8.51	CN1C(C)(C)CC(NC(=O)c2ccc(-c3cc(-c4cccc(C(F)(F)F)c4)n[nH]3)cc2)CC1(C)C	> 10
1.17	2.45	2.4	3.31	COc1ccc2nc(C)cc(NCc3cccc(NC(=O)c4ccco4)c3)c2c1	> 10
3.02	5.37	2.75	8.71	COCCNc1nc(N[C@@H](C)c2ccccc2)c2ccccc2n1	> 10
3.24	4.47	3.72	> 10	Cc1cc(N2CCC(N(C)Cc3cc(-c4ccccc4)n[nH]3)CC2)nc(N)n1	> 10
0.912	1.41	2.4	> 10	COc1ccc2nc3cc(Cl)ccc3c(O)c2c1	> 10
0.603	1.29	0.955	3.09	COC(=O)c1cn(CCNc2ccnc3cc(Cl)ccc23)cc2c(O)nnc1-2	> 10
4.37	7.41	4.37	7.41	Nc1ccc(Nc2ccc(F)cc2)c2ccncc12	> 10
0.263	0.389	0.269	0.562	CCNc1nc(C)cc(Nc2ccc(NC(=O)Nc3ccc(F)cc3F)cc2)n1	2.63
3.02	3.98	3.89	7.76	O[C@H](COc1ccccc1CNCc1cc(-c2ccccc2)[nH]n1)CN1CCCCC1	> 10
4.07	5.13	6.46	8.51	O=C(CCc1nnc(-c2ccc(-c3ccccc3)cc2)o1)NC[C@@H]1CCCN2CCCC[C@H]12	> 10
> 10	> 10	> 10	> 10	O=C1C2CCCCC2C(c2c(-c3ccccc3)[nH]c3ccccc23)N1Cc1ccccc1 (stereo not given)	> 10
